# Read-outs that look alike come from different tables or passages of the source. Marks after values point to notes of the source that are not given here.
# How the values were obtained:
# [1] = NMR method: depletion of electrophile signal on reaction with DCYA; conditions: for Conversion rate: 0.1 M DCYA, 0.1 M L-carvone
# From the text: The described example can be applied to pure chemicals and mixtures. The method includes the acquisition of at least one NMR spectrum, mixing an electrophile and a nucleophile to acquire an array of control spectra and an addition of catalyst to record an array of reaction spectra. It also includes the quantification of at least one signal and the comparison of the signal with a control and the classification of the reaction based on the depletion of potential sensitizer based on the quantified residual signal.
# 2,5-Dimethylfuran was used as internal standard. When necessary, characterization of the product(s) formed during the reaction(s) was performed by homonuclear ^1H connectivities using 2D-COSY experiments. […] Two- and three bond ^1H-^13C connectivities were determined by gradient-HMBC experiments in which the evolution period for long-range ^1H-^13C coupling constants was optimized for a ^2,3JC,H of 8 Hz. Through-space ^1H connectivities were determined using a NOESY experiment with a mixing time of 0.450 s. […] Toronto, Canada].
# In a 3 mm NMR tube, 1 volume of DCYA (100) mM in CDCl3) was mixed with one volume of sensitizer (100 mM in CDCl3) to give a final concentration of 50 mM for both DCYA and the sensitizer. Control ^1H NMR spectra (reference spectra) were recorded at regular intervals of for a minimum of 5 min. […] All spectra were recorded at constant temperature. All experiments were conducted using the manufacturer's standard presaturation pulse programs and experimental conditions were chosen as explained in NMR spectroscopy section. The progress of the reaction was followed by the diminished peak areas of the resonances for the signal of interest. The spectra were phased, referenced, and integrated using NMR data elaboration software. The structural characterizations of the resulting adducts were confirmed by conducting additional 2D-NMR experiments when necessary.
# Covalent reaction of DCYA with carvone is dependent on the activation of the nucleophilic group (ex. sulfhydryl group to the reactive thio-anion) under basic conditions. This reaction is strongly dependent on the nature of the nucleophile and may be modulated by careful choice of the model nucleophile and the reaction conditions.
# The control spectra are used as reference spectra (FIG. 3A). All the spectra were subjected to automatic phase and baseline correction using a Bernstein polynomial fit (order 3). After these two steps, all the spectra were integrated over the areas of interest. […] Both vinylic and adduct peak areas were normalized relative to the internal standard signal peaks. […] The concentrations of both electrophile and adduct were then plotted as percentage against time (in minutes). (FIG. 5).
# thiol peptide [2] = conditions: cited from earlier work; for Cys-DPRA, percentage of thiol peptide depleted: adopted from the literature; for Cys-DPRA % Pept. remain.: reported results from the literature
# [3] = tested on: ARE-dependent gene activity in a recombinant cell line; conditions: cited from earlier work
# [4] = cited from earlier work
# [5] = Microplate spectrophotometric method (DCYA assay), fluorescence end-point; conditions: for DCYA 100-RI: RI = reactivity index, 2 equiv. electrophile, pH 10 buffer; for DCYA assay reactivity / classification in words: microplate spectrophotometric method; for DCYA binary classification: FN: false negative; for DCYA binary classification: FP: false positive; for DCYA binary classification: TN: true negative; for DCYA binary classification: TP: true positive, positive if 100-RI <95
# thiol peptide [6] = assay: Cys-DPRA (Direct Peptide Reactivity Assay), literature data; conditions: for Cys-DPRA binary classification: FN: false negative; for Cys-DPRA binary classification: FP: false positive; for Cys-DPRA binary classification: TN: true negative; for Cys-DPRA binary classification: TP: true positive
# thiol peptide [7] = tested on: thiol peptide
# [8] = 2.1 mM, pH 10
# [9] = based on depletion of electrophile signal at 30 min
# [10] = conversion of test chemical at 90 min, 1 equiv. DCYA, 0.1 equiv. DBN, CDCl3
# [11] = effective concentration, published literature (Table 1)
SMILES,NMR assay reactivity / classification in words [1],"Conversion at t30 (depletion of electrophile signal) ([1]; at 30 min, 1 equiv. DCYA) [%]","NMR Classification [1, 9]","NMR Method conversion [1, 10]","Cys-DPRA, percentage of thiol peptide depleted (thiol peptide [2])",Cys-DPRA % Pept. remain. (thiol peptide [2]) [%],KeratinoSens ™ EC3 ([3]; published literature (Table 1)),KeratinoSens ™ EC3 ([3]; reported results (Table 7)) [µM],"LLNA (EC3) [4, 11] [%]",LLNA Classification ([4]; published literature),LLNA EC3 ([4]; reported results (Table 7)) [%],DCYA 100-RI [5],Cys-DPRA binary classification: FN (thiol peptide [6]),Cys-DPRA binary classification: FP (thiol peptide [6]),Cys-DPRA binary classification: TN (thiol peptide [6]),Cys-DPRA binary classification: TP (thiol peptide [6]),DCYA binary classification: FN [5],DCYA binary classification: FP [5],DCYA binary classification: TN [5],DCYA binary classification: TP [5],also measured
Oc1ccc(O)cc1 [p-Hydroquinone],almost unreactive,5,Non^$,5%,83.3%,16.7,51.29 µM,51.29,0.11,Strong,0.11,127.1,–,–,–,–,–,–,–,–,Cys-DPRA reactivity in words (thiol peptide [2]; literature): non-reactive; DCYA assay reactivity / classification in words [5]: non-reactive
C=C(C)C1CC=C(C=O)CC1 (centres unmarked) [Perillaldehyde],moderate/low electrophilic behavior,28,Weak-moderate,28%,31.9%,68.1,61.85 µM,61.85,8.1,Moderate,8.1,95.8,0,0,0,1,1,0,0,0,–
O=c1ccc2ccccc2o1 [Coumarin],almost unreactive,–,Non,–,–,–,–,–,–,–,–,97.2,–,0,1,0,0,0,1,0,"Conversion at t30 (depletion of electrophile signal) ([1]; 30 min, 50 mM): 0%; NMR Method conversion ([1]; 90 min, 50 mM): 0%; Cys-DPRA binary classification: FN (thiol peptide [7]): 0; Fluorescence response, Reaction (R), average of 9 readings ([5]; DCYA + test article + pH 10 buffer + resin): 1996.775 RFU"
OCCc1ccc(O)c(O)c1 [3-Hydroxytyrosol],almost unreactive,6,–,6%,–,–,–,–,–,–,–,–,–,–,–,–,–,–,–,–,"DCYA 100-RI [8]: 97.2; NMR Classification [1]: Non^$; Cys-DPRA reactivity in words (thiol peptide [2]): non-reactive; LLNA (EC3) ([4]; mouse, in vivo): 0.6%; LLNA Classification ([4]; mouse, in vivo): Strong; LLNA EC3 ([4]; mouse, in vivo): 0.6%"
C=C(C)[C@@H]1CC=C(C)C(=O)C1 [L-Carvone],–,16,Weak,16%,26.3^20%,–,258.71^20 μM,–,–,Moderate,13,88.4,0,0,0,–,0,0,0,1,"Depletion ([1]; 0.05 equivalents DBN, chloroform): 23%; Depletion ([1]; 0.1 equivalents DBN, chloroform): 35%; Depletion ([1]; 0.2 equivalents DBN, chloroform): 28%; Conversion rate ([1]; DMSO, 0.1 equiv. DBN): 42%; Conversion rate ([1]; acetonitrile, 0.1 equiv. DBN): 47%; Reaction between DCYA and carvone ([1]; aqueous pH 10 buffer (5% v/v) in acetonitrile, after 90 minutes): 42%; Electrophile depletion ([1]; excess of DCYA, chloroform, 0.1 equiv. DBN): around 37%; Depletion ([1]; excess of electrophile, 2 equiv., chloroform, 0.1 equiv. DBN): 21%; Depletion ([1]; excess of electrophile, 4 equiv., chloroform, 0.1 equiv. DBN): 8%"
C=CC(=O)OCC [Ethyl acrylate],–,92,Strong,93%,96.4%,3.6,231.19 µM,231.19,28,Weak,28,−0.7,0,0,0,1,0,0,0,1,–
O=C1C=CC(=O)C=C1 [p-Benzoquinone],high reactivity,95,Strong,95^# %,99.0%,1,32.77 µM,32.77,0.01,Extreme,0.01,34.5,0,0,0,1,0,0,0,1,"Depletion in less than five minutes ([1]; NMR, less than five minutes): > 95%; DCYA assay reactivity / classification in words [5]: correctly identified as a sensitizer"
Cn1sccc1=O [2-Methyl-4-isothiazolin-3-one],–,–,–,–,–,2.1,–,29.56,–,–,1.9,–,0,0,0,1,–,–,–,–,DCYA 100-RI [8]: 16.4; DCYA binary classification: FN [8]: 0; DCYA binary classification: FP [8]: 0; DCYA binary classification: TN [8]: 0; DCYA binary classification: TP [8]: 1
